The source of these data is paper PMC7247319, “The mitochondria-targeted peptide SS-31 binds lipid bilayers and modulates surface electrostatics as a key component of its mechanism of action” (The Journal of Biological Chemistry, 2020).

The test system of experiment [1] is LUVs with POPC only. In words: SS-31 binding isotherms by endogenous 2′,6′-Dmt fluorescence. The conditions noted are these: even at the highest lipid concentrations used. The source says: The interaction of basic amphipathic peptides with negatively charged membranes depends on the electric field originating from the bilayer surface as well as specific electrostatic and hydrophobic interactions between the peptide and lipids (Fig. S2). The first objective of this study was to quantitatively evaluate the binding of SS-31 to model membranes with specific lipid composition. For spectroscopic analysis of SS-31 binding, we made use of the endogenous spectral properties of the 2′,6′-dimethyltyrosine (2′,6′-Dmt) side chain at the second position in the peptide. Our initial spectral characterization of SS-31 confirmed the feasibility of using endogenous peptide fluorescence to quantify peptide-membrane interactions (supporting Results A and B and Figs. S3 and S4). We therefore proceeded to measure the binding of SS-31 to large unilamellar vesicles (LUVs) containing anionic lipids in a host background of the zwitterionic lipid 1-palmitoyl-2-oleoyl-sn-glycero-3-phosphocholine (POPC, 16:0/18:1 PC). […]
Figure 2. […] A–C, fluorescence-based measurements. […] Statistical differences within each data set were determined relative to TOCL-containing membranes: •, p < 0.05; ••, p < 0.01. […]

The test system of experiment [2] is LUVs composed of POPC alone or with 20% TOCL, MLCL, or POPG. Nature of the experiment: Synchrotron SAXS and 31P solid-state NMR of model membranes. The conditions noted are these: highest peptide concentration, [P]/[L]^eff = 1:5; 2 mM total lipid. From the text: Amphipathic molecules such as antimicrobial peptides can induce large structural changes in membranes, including micellization, pore formation, and induction of inverted topologies ([45]). We therefore addressed whether SS-31 induced structural polymorphism within model bilayers using a range of approaches (Fig. 4). […] Similarly, based on ^31P solid-state NMR (ssNMR) measurements, these model membranes yielded line shapes consistent with lamellar bilayers ([47]), and we observed no effect of SS-31 on bilayer structure (Fig. 4B, supporting Results F, and Fig. S10B). […] Thus, these membranes are expected to exist stably in the liquid crystalline lamellar mesophase over all peptide concentrations.
Figure 4. Effects of SS-31 on structural properties of model membranes. […] LUVs composed of 20% anionic lipid (TOCL, MLCL, or POPG) in POPC background were measured in the absence or presence of peptide ([SS-31]/[lipid]^eff = 1:5) as indicated. […] Data and fits in gray show SS-31 fractional saturation (calculated from Fig. 2A, [lipid]^eff = 25 μM). […]
NMR data were recorded at 162 MHz on a Bruker AVANCE III 400-MHz WB spectrometer equipped with an HXY probe tuned for ^1H and ^31P. […] Model membranes (LUVs) were measured at 25 °C (total of 10,240 scans/sample) with a total lipid concentration of 2 mM lipid in the presence of different concentrations of SS-31 (0, 1:500, 1:50, and 1:5 [P]/[L]^eff). […]

Where a SMILES comes first, the peptide text is derived from it. [ ]: non-standard residue; d: D form. Dmt = Cc1cc(O)cc(C)c1C[C@H](N)C(=O)O

Turning to `Cc1cc(O)cc(C)c1C[C@H](NC(=O)[C@H](N)CCCNC(=N)N)C(=O)N[C@@H](CCCCN)C(=O)N[C@@H](Cc1ccccc1)C(N)=O` [SS-31, D-Arg-2′6′-dimethyl-Tyr-Lys-Phe-NH2] (H-[dR][Dmt]KF-NH2), the “binding in the absence of anionic lipid” value in experiment [1] is given as “negligible”. The “effect on bilayer structure / lamellarity (SAXS, 31P ssNMR)” value in experiment [2] was “did not cause major topological alterations”.
